Reference: patent publication US20250353819A1, “ARYL HYDANTOIN COMPOUNDS AND METHODS OF USE” (priority 2022, published 2025)
Several values for one entry are separate records, joined by “and”; a condition that tells them apart may be missing. Identical values can stand only once. Like-named read-outs stand apart in the source and are kept apart here.

Columns and labels:
LAPC4 cells = test: Androgen-dependent cell-based assay (DHT, LAPC4); settings: Homo sapiens; DHT-induced, androgen-dependent LAPC4 prostate cancer cell line; read-out: LAPC4 IC50
Protocol: Androgen-Dependent Cell-based Assay. As described by Jones and Diamond (2008), LAPC4 cells were cultured in phenol red free RPMI 1640 media supplemented with antibiotics and 10% FBS. […] […] Mean-effect plots (log[compound] vs. log[fractional effect]) were generated to determine the IC50 values for each test compound or combinations of test compounds at constant ratios.

S. mansoni = test: Antischistosomal screen in S. mansoni-infected mice; type: in vivo, Schistosoma mansoni; settings: Schistosoma mansoni, single oral dose, mouse model
Excerpt: Antischistosomal Screen. […] As described by Lombardo et al. (2019), cercariae of S. mansoni were obtained from infected Biomphalaria glabrata. By way of example, NMRI mice were infected subcutaneously with approximately 100 S. mansoni cercariae. […] Untreated mice (n=8) served as controls. At 21 d post-treatment, animals were killed by the CO2 method and dissected. Worms were removed by picking, then sexed and counted.

[1] = Partition coefficient (Log D) by gradient HPLC; type: physicochemical; settings: pH 7.4, chromatographic estimate; read-out: gLogD7.4
Excerpt: Partition Coefficient. Partition coefficient values (Log D) of the test compounds were estimated by correlation of their chromatographic retention properties against the characteristics of a series of standard compounds with known partition coefficient values using gradient HPLC (modification of a method reported by Lombardo et al., 2001).

[2] = Plasma protein binding (rapid equilibrium dialysis), human plasma; type: in vitro ADME; settings: human, plasma, read-out: % bound (converted)
[3] = Plasma protein binding, dog plasma; type: in vitro ADME; settings: read-out: % bound (converted)
[4] = Plasma protein binding, rat plasma; type: in vitro ADME; settings: read-out: % bound (converted)
[5] = Plasma protein binding, mouse plasma; type: in vitro ADME; settings: mouse, plasma, read-out: % bound (converted)
CYP 1A2 = CYP 1A2 (Homo sapiens (Human), UniProt P05177); test: CYP inhibition in human liver microsomes, 1A2; type: in vitro ADME
CYP 2C19 = CYP 2C19 (Homo sapiens (Human), UniProt P33261); test: CYP inhibition in human liver microsomes, 2C19; type: in vitro ADME
[6] = Pharmacokinetics in male Sprague Dawley rats; type: in vivo, rat
Protocol: IV and oral formulations were prepared using the same method. On the day of dosing the solid compound was dissolved in DMSO prior to addition of a saline solution (0.9% w/v). The samples were then mixed using vortexing producing colourless solutions. The IV formulation was filtered through a 0.22 μm syringe filter prior to dosing and the oral formulation was dosed without filtration.
Samples of arterial blood were collected up to 168 h post-dose. Urine samples were not collected as animals were housed in bedded cages. Arterial blood was collected directly into borosilicate vials (at 4° C.) containing heparin as anticoagulant. Once collected, blood samples were centrifuged, supernatant plasma was removed and stored frozen (−80° C.) until analysis by LC-MS. A summary of the bioanalytical method and assay validation details is included in Tables 14 and 15.
Plasma concentration versus time data were analysed using non-compartmental methods (PKSolver Version 2.0). Standard calculations for each pharmacokinetic parameter are listed below.

Chain of CYP 1A2 (P05177 whole entry): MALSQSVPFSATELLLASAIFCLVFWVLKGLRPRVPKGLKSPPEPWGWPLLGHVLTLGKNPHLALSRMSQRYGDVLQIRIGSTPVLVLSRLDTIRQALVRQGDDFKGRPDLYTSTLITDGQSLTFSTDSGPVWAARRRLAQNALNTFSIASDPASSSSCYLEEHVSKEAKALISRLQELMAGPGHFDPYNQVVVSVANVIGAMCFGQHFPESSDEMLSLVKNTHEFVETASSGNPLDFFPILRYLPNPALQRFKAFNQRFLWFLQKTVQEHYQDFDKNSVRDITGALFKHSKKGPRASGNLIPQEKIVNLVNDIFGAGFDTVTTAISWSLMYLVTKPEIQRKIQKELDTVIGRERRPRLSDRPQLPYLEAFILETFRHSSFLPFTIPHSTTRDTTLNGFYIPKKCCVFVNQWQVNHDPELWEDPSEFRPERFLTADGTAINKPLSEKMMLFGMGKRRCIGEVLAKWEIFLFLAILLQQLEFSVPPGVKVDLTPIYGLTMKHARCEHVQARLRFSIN
Chain of CYP 2C19 (P33261 whole entry): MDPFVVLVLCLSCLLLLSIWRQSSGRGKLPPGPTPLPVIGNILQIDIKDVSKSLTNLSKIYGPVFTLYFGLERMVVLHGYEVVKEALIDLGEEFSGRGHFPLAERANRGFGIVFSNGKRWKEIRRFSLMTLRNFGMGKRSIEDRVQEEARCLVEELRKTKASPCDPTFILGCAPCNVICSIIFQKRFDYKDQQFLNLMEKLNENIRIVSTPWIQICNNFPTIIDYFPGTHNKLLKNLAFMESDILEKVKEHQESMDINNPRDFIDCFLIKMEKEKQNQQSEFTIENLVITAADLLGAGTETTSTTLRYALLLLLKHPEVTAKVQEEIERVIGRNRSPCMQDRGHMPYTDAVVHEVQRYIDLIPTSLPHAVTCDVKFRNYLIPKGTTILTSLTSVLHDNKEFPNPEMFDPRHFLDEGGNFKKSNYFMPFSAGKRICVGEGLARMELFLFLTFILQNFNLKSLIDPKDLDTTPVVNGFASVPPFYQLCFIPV

SMILES: CC1(C)NC(=O)N(c2ccc(F)c(C(C)(F)F)c2)C1=O [Compound IC, 3-(3-(1,1-difluoroethyl)-4-fluorophenyl)-5,5-dimethylimidazolidine-2,4-dione]
- IC50 (LAPC4 cells): > 100 µM
- ED50 (S. mansoni; adult stage, read-out: S. mansoni ED50, adult): 20 mg/kg
- ED50 (S. mansoni; juvenile stage, read-out: S. mansoni ED50, juvenile): 23 mg/kg
- chromatographic logD [1]: 2.6
- fraction unbound [2]: 0.34
- fraction unbound [3]: 0.36
- fraction unbound [4]: 0.38
- fraction unbound [5]: 0.38
- IC50 (CYP 1A2): > 20 µM
- IC50 (CYP 2C19): > 20 µM
- Plasma Concentration ([6]; IV 1 mg/kg, 0.17 h, individual rats): 1292 ng/mL and 1300 ng/mL and 908 ng/mL
- Plasma Concentration ([6]; IV 1 mg/kg, 0.17 h, mean): 1167 ng/mL
- Plasma Concentration ([6]; IV 1 mg/kg, 1.17 h, individual rats): 728 ng/mL and 549 ng/mL and 529 ng/mL
- Plasma Concentration ([6]; IV 1 mg/kg, 1.17 h, mean): 602 ng/mL
- Plasma Concentration ([6]; IV 1 mg/kg, 2.17 h, individual rats): 701 ng/mL and 669 ng/mL and 469 ng/mL
- Plasma Concentration ([6]; IV 1 mg/kg, 2.17 h, mean): 613 ng/mL
- Plasma Concentration ([6]; IV 1 mg/kg, 4.17 h, individual rats): 640 ng/mL and 662 ng/mL and 420 ng/mL
- Plasma Concentration ([6]; IV 1 mg/kg, 4.17 h, mean): 574 ng/mL
- Plasma Concentration ([6]; IV 1 mg/kg, 7.17 h, individual rats): 569 ng/mL and 641 ng/mL and 493 ng/mL
- Plasma Concentration ([6]; IV 1 mg/kg, 7.17 h, mean): 568 ng/mL
- Plasma Concentration ([6]; IV 1 mg/kg, 12.17 h, individual rats): 545 ng/mL and 473 ng/mL and 480 ng/mL
- Plasma Concentration ([6]; IV 1 mg/kg, 12.17 h, mean): 499 ng/mL
- Plasma Concentration ([6]; IV 1 mg/kg, 24.17 h, individual rats): 340 ng/mL and 403 ng/mL and 268 ng/mL
- Plasma Concentration ([6]; IV 1 mg/kg, 24.17 h, mean): 337 ng/mL
- Plasma Concentration ([6]; IV 1 mg/kg, 36.17 h, individual rats): 215 ng/mL and 266 ng/mL and 216 ng/mL
- Plasma Concentration ([6]; IV 1 mg/kg, 36.17 h, mean): 232 ng/mL
- Plasma Concentration ([6]; IV 1 mg/kg, 48.17 h, individual rats): 125 ng/mL and 170 ng/mL and 97 ng/mL
- Plasma Concentration ([6]; IV 1 mg/kg, 48.17 h, mean): 130 ng/mL
- Plasma Concentration ([6]; IV 1 mg/kg, 72.17 h, individual rats): 46.8 ng/mL and 62.2 ng/mL and 33.5 ng/mL
- Plasma Concentration ([6]; IV 1 mg/kg, 72.17 h, mean): 47.5 ng/mL
- Plasma Concentration ([6]; IV 1 mg/kg, 96.17 h, individual rats): 11.5 ng/mL and 28.1 ng/mL and 13.6 ng/mL
- Plasma Concentration ([6]; IV 1 mg/kg, 96.17 h, mean): 17.7 ng/mL
- Plasma Concentration ([6]; IV 1 mg/kg, 120.17 h, individual rats): 3.1 ng/mL and 7.0 ng/mL and 2.6 ng/mL
- Plasma Concentration ([6]; IV 1 mg/kg, 120.17 h, mean): 4.2 ng/mL
- Plasma Concentration ([6]; IV 1 mg/kg, 144.17 h, individual rats): 3.0 ng/mL
- Plasma Concentration ([6]; IV 1 mg/kg, 144.17 h, mean): 3.0 ng/mL
- clearance ([6]; male, Sprague Dawley, rat, in vivo, iv, 1 mg/kg, rats, IV 1 mg/kg, individual rats, read-out: Blood CL): 0.664 mL/min/kg
- Vd ([6]; male, Sprague Dawley, rat, in vivo, iv, 1 mg/kg, rats, IV 1 mg/kg, individual rats, read-out: Blood Vss): 0.948 L/kg
- AUC ([6]; male, Sprague Dawley, rat, in vivo, iv, 1 mg/kg, rats, IV 1 mg/kg, individual rats, read-out: Plasma AUCIV): 20900 ng·h/mL
- clearance ([6]; male, Sprague Dawley, rat, in vivo, iv, 1 mg/kg, rats, IV 1 mg/kg, individual rats, read-out: Plasma CL): 0.797 mL/min/kg
- Vd ([6]; male, Sprague Dawley, rat, in vivo, iv, 1 mg/kg, rats, IV 1 mg/kg, individual rats, read-out: Plasma Vss): 1.14 L/kg
- AUC ([6]; male, Sprague Dawley, rat, in vivo, iv, 1 mg/kg, rats, IV 1 mg/kg, mean (n = 3), read-out: Plasma AUCIV): 20600 ng·h/mL
- clearance ([6]; male, Sprague Dawley, rat, in vivo, iv, 1 mg/kg, rats, IV 1 mg/kg, mean (n = 3), read-out: Plasma CL): 0.825 mL/min/kg
- Vd ([6]; male, Sprague Dawley, rat, in vivo, iv, 1 mg/kg, rats, IV 1 mg/kg, mean (n = 3), read-out: Plasma Vss): 1.25 L/kg
- clearance ([6]; male, Sprague Dawley, rat, in vivo, iv, 1 mg/kg, rats, IV 1 mg/kg, mean, read-out: Blood CL): 0.687 mL/min/kg
- Vd ([6]; male, Sprague Dawley, rat, in vivo, iv, 1 mg/kg, rats, IV 1 mg/kg, mean, read-out: Blood Vss): 1.04 L/kg
- AUC ([6]; male, Sprague Dawley, rat, in vivo, po, 1 mg/kg, rats, PO 1 mg/kg, individual rats, read-out: Plasma AUCoral): 23300 ng·h/mL
- Cmax ([6]; male, Sprague Dawley, rat, in vivo, po, 1 mg/kg, rats, PO 1 mg/kg, individual rats, read-out: Plasma Cmax): 614 ng/mL
- AUC ([6]; male, Sprague Dawley, rat, in vivo, po, 1 mg/kg, rats, PO 1 mg/kg, mean (n = 3), read-out: Plasma AUCoral): 20400 ng·h/mL
